Measured values from patent publication US9034907B2, “Inhibitors of glutaminyl cyclase” (Probiodrug AG, priority 2007, dated 2015).

Tests used:
glutaminyl cyclase (QC) = glutaminyl cyclase (QC) (Homo sapiens (Human), UniProt Q16769); experiment: QC inhibitor assay (fluorometric / spectrophotometric QC activity assay with inhibitor added); conditions: 30° C.
Sequence of glutaminyl cyclase (QC) (Q16769 29-361): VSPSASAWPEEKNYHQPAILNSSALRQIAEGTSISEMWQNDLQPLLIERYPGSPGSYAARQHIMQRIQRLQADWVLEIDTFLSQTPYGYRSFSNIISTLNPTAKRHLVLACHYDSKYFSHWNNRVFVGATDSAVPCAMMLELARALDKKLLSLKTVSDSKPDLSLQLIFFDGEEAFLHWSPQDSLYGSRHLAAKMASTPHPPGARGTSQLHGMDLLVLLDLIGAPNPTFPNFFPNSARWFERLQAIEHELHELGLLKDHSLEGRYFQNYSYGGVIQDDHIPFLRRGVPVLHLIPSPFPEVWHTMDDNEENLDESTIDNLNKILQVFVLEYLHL
Description: All measurements were performed with a BioAssay Reader HTS-7000Plus for microplates (Perkin Elmer) at 30° C. QC activity was evaluated fluorometrically using H-Gln-βNA. The samples consisted of 0.2 mM fluorogenic substrate, 0.25 U pyroglutamyl aminopeptidase (Unizyme, Hørsholm, Denmark) in 0.2 M Tris/HCl, pH 8.0 containing 20 mM EDTA and an appropriately diluted aliquot of QC in a final volume of 250 μl. Excitation/emission wavelengths were 320/410 nm. The assay reactions were initiated by addition of glutaminyl cyclase. QC activity was determined from a standard curve of β-naphthylamine under assay conditions. One unit is defined as the amount of QC catalyzing the formation of 1 μmol pGlu-βNA from H-Gln-βNA per minute under the described conditions.
In a second fluorometric assay, QC was activity determined using H-Gln-AMC as substrate. Reactions were carried out at 30° C. utilizing the NOVOStar reader for microplates (BMG labtechnologies). […] The kinetic data were evaluated using GraFit software.
Samples consisted of the respective QC substrate, 0.3 mM NADH, 14 mM α-Ketoglutaric acid and 30 U/ml glutamate dehydrogenase in a final volume of 250 μl. […] All samples were measured at 30° C., using either the [sequence]luor Plus or the Sunrise (both from TECAN) reader for microplates. Kinetic data was evaluated using GraFit software. […]

| melting point [°C] | SMILES | other results |
| --- | --- | --- |
| 225 to 227 | Cc1csc2c(=O)n(CCCn3ccnc3)c(=S)[nH]c12 |  |
| 118 to 120 | O=c1c2c3c(sc2[nH]c(=S)n1CCCn1ccnc1)CCCC3 |  |
|  | O=c1c2ccccc2[nH]c(=S)n1CCCn1ccnc1 [Example 28, 2,3-dihydro-3-(3-(1H-imidazol-1-yl)propyl)-2-thioxoquinazolin-4(1H)-one] | Ki (glutaminyl cyclase (QC); competitive inhibition fit of progress curves): 0.3 µM |
|  | O=c1c2ccccc2[nH]c(=S)n1-c1ccc2[nH]cnc2c1 [Example 43, 3-(1H-benzo[d]imidazol-5-yl)-2,3-dihydro-2-thioxo-quinazolin-4(1H)-one] | IC50 (glutaminyl cyclase (QC); QC inhibition): 121 µM |
